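Following 48 hours of exposure in 96-well plates, responses at five concentrations were used to interpolate endpoints linearly. Here, GI50 denotes the concentration required for 50% inhibition of growth.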 The source made the active and inactive calls. No stated cut-off is given here; in the data, active = GI50 up to about 1.1 µM and inactive = higher.
Tests used:
Experiment in all cases: inhibition of tumour cell growth, NCI panel, 48 h
NCI-H23 = system: NCI-H23
K562 = system: K562
SR = system: SR
RPMI-8226 = system: RPMI-8226
HOP-62 = system: HOP-62
UO-31 = system: UO-31
T47D = system: T47D
NCI-H226 = system: NCI-H226
A549 = system: A549
MDA-N = system: MDA-N
U-251 = system: U-251
CCRF-CEM = system: CCRF-CEM
IGROV-1 = system: IGROV-1
A498 = system: A498
SNB-19 = system: SNB-19
RXF 393 = system: RXF 393
COLO 205 = system: COLO 205
OVCAR-8 = system: OVCAR-8
UACC-257 = system: UACC-257
NCI-H522 = system: NCI-H522

Oc1c2cc(Br)cc1CCc1cc(Br)cc(c1O)CC2
GI50 (NCI-H23): 28.6 µM (inactive)
GI50 (K562): 20.2 µM (inactive)
GI50 (SR): < 0.01 µM (active)
GI50 (RPMI-8226): 17.2 µM (inactive)
GI50 (HOP-62): 28.6 µM (inactive)
GI50 (UO-31): 12.8 µM (inactive)
GI50 (T47D): 38.8 µM (inactive)
GI50 (NCI-H226): 16.3 µM (inactive)
GI50 (A549): 26.9 µM (inactive)
GI50 (MDA-N): 30.1 µM (inactive)
GI50 (U-251): 23.6 µM (inactive)
GI50 (CCRF-CEM): 18.2 µM (inactive)
GI50 (IGROV-1): 38.2 µM (inactive)
GI50 (A498): 31.8 µM (inactive)
GI50 (SNB-19): 31 µM (inactive)
GI50 (RXF 393): 20.2 µM (inactive)
GI50 (COLO 205): 14.4 µM (inactive)
GI50 (OVCAR-8): 28.8 µM (inactive)
GI50 (UACC-257): 20.2 µM (inactive)
GI50 (NCI-H522): 14.4 µM (inactive)

C/C(=C/c1ccccc1)CN(C(=O)/C=C\Sc1ccccc1)C(C)(C)C
GI50 (NCI-H23): > 48 µM (inactive)
GI50 (K562): 27.2 µM (inactive)
GI50 (SR): 19.6 µM (inactive)
GI50 (RPMI-8226): 21.2 µM (inactive)
GI50 (HOP-62): > 100 µM (inactive)
GI50 (UO-31): > 52 µM (inactive)
GI50 (T47D): > 31.2 µM (inactive)
GI50 (NCI-H226): > 94.4 µM (inactive)
GI50 (A549): 60.1 µM (inactive)
GI50 (MDA-N): > 100 µM (inactive)
GI50 (U-251): > 84.9 µM (inactive)
GI50 (CCRF-CEM): 63.1 µM (inactive)
GI50 (IGROV-1): > 100 µM (inactive)
GI50 (A498): > 100 µM (inactive)
GI50 (SNB-19): > 100 µM (inactive)
GI50 (RXF 393): > 100 µM (inactive)
GI50 (COLO 205): > 100 µM (inactive)
GI50 (OVCAR-8): > 83.8 µM (inactive)
GI50 (UACC-257): 48.3 µM (inactive)
GI50 (NCI-H522): 10.1 µM (inactive)

COc1ccc([C@@]23Oc4cc(OC)cc(OC)c4[C@]2(O)[C@H](O)[C@H](C(=O)N(C)C)[C@H]3c2ccccc2)cc1 [ROCAGLAMIDE]
GI50 (NCI-H23): 0.00885 µM (active)
GI50 (K562): 0.00237 µM (active)
GI50 (SR): 0.00162 µM (active)
GI50 (RPMI-8226): 0.00555 µM (active)
GI50 (HOP-62): 0.00973 µM (active)
GI50 (UO-31): 0.0158 µM (active)
GI50 (T47D): 0.00219 µM (active)
GI50 (NCI-H226): 0.0113 µM (active)
GI50 (A549): 0.00353 µM (active)
GI50 (MDA-N): 0.00355 µM (active)
GI50 (U-251): 0.00605 µM (active)
GI50 (CCRF-CEM): 0.00366 µM (active)
GI50 (IGROV-1): 0.00612 µM (active)
GI50 (A498): 0.00791 µM (active)
GI50 (SNB-19): 0.267 µM (active)
GI50 (RXF 393): 0.0206 µM (active)
GI50 (COLO 205): 0.00647 µM (active)
GI50 (OVCAR-8): 0.0109 µM (active)
GI50 (UACC-257): 0.0184 µM (active)
GI50 (NCI-H522): 0.0104 µM (active)

O=C(c1ccccc1)N1C(=S)N(c2ccccn2)C(=N/c2ccccc2)/C1=N\c1ccccc1
GI50 (NCI-H23): 6.4 µM (inactive)
GI50 (K562): 7.18 µM (inactive)
GI50 (SR): 3.86 µM (inactive)
GI50 (RPMI-8226): 7.91 µM (inactive)
GI50 (HOP-62): 27.4 µM (inactive)
GI50 (UO-31): 9.68 µM (inactive)
GI50 (T47D): 15.1 µM (inactive)
GI50 (NCI-H226): > 69.3 µM (inactive)
GI50 (A549): 27.5 µM (inactive)
GI50 (MDA-N): 11.4 µM (inactive)
GI50 (U-251): 8.11 µM (inactive)
GI50 (CCRF-CEM): 2.57 µM (inactive)
GI50 (IGROV-1): 13 µM (inactive)
GI50 (A498): > 66.5 µM (inactive)
GI50 (SNB-19): 25.5 µM (inactive)
GI50 (RXF 393): 5.11 µM (inactive)
GI50 (COLO 205): 28.8 µM (inactive)
GI50 (OVCAR-8): 8.28 µM (inactive)
GI50 (UACC-257): 23 µM (inactive)
GI50 (NCI-H522): 2.16 µM (inactive)

Oc1ccccc1-c1nn2c(CCCCCCCCc3nnc4sc(-c5ccccc5O)nn34)nnc2s1
GI50 (NCI-H23): 18.8 µM (inactive)
GI50 (K562): 7.6 µM (inactive)
GI50 (SR): 3.93 µM (inactive)
GI50 (RPMI-8226): 11.1 µM (inactive)
GI50 (HOP-62): 8.71 µM (inactive)
GI50 (UO-31): 4.11 µM (inactive)
GI50 (T47D): 4.9 µM (inactive)
GI50 (NCI-H226): > 48.9 µM (inactive)
GI50 (A549): 6 µM (inactive)
GI50 (MDA-N): 4.58 µM (inactive)
GI50 (U-251): 12.9 µM (inactive)
GI50 (CCRF-CEM): 5.42 µM (inactive)
GI50 (IGROV-1): 4.66 µM (inactive)
GI50 (A498): 14.5 µM (inactive)
GI50 (SNB-19): 23.7 µM (inactive)
GI50 (RXF 393): 10.2 µM (inactive)
GI50 (COLO 205): 37.2 µM (inactive)
GI50 (OVCAR-8): 18.7 µM (inactive)
GI50 (UACC-257): 20.3 µM (inactive)
GI50 (NCI-H522): 13.9 µM (inactive)

N#Cc1c(N2CCN(c3ccc([N+](=O)[O-])cc3)CC2)[n+]([O-])c2ccc(Cl)cc2[n+]1[O-]
GI50 (NCI-H23): 1.71 µM (inactive)
GI50 (K562): 0.231 µM (active)
GI50 (SR): 0.016 µM (active)
GI50 (RPMI-8226): 0.705 µM (active)
GI50 (HOP-62): 0.521 µM (active)
GI50 (UO-31): 1.43 µM (inactive)
GI50 (T47D): 0.716 µM (active)
GI50 (NCI-H226): 2.29 µM (inactive)
GI50 (A549): 2.02 µM (inactive)
GI50 (MDA-N): 1.75 µM (inactive)
GI50 (U-251): 0.738 µM (active)
GI50 (CCRF-CEM): 0.29 µM (active)
GI50 (IGROV-1): 0.318 µM (active)
GI50 (A498): 0.575 µM (active)
GI50 (SNB-19): 2.81 µM (inactive)
GI50 (RXF 393): 1.79 µM (inactive)
GI50 (COLO 205): 3.24 µM (inactive)
GI50 (OVCAR-8): 1.11 µM (active)
GI50 (UACC-257): 2.65 µM (inactive)
GI50 (NCI-H522): 0.721 µM (active)

COc1ccc(C(OC(=O)[C@H](O[Si](C)(C)C(C)(C)C)[C@@H](NC(=O)c2ccccc2)c2ccccc2)c2ccc(OC)cc2)cc1
GI50 (NCI-H23): > 100 µM (inactive)
GI50 (K562): 24.8 µM (inactive)
GI50 (SR): 36.6 µM (inactive)
GI50 (RPMI-8226): < 0.01 µM (active)
GI50 (HOP-62): > 100 µM (inactive)
GI50 (UO-31): > 100 µM (inactive)
GI50 (T47D): > 100 µM (inactive)
GI50 (NCI-H226): > 100 µM (inactive)
GI50 (A549): > 100 µM (inactive)
GI50 (MDA-N): > 100 µM (inactive)
GI50 (U-251): > 100 µM (inactive)
GI50 (CCRF-CEM): > 100 µM (inactive)
GI50 (IGROV-1): > 100 µM (inactive)
GI50 (A498): > 100 µM (inactive)
GI50 (SNB-19): > 100 µM (inactive)
GI50 (RXF 393): > 100 µM (inactive)
GI50 (COLO 205): > 100 µM (inactive)
GI50 (OVCAR-8): > 100 µM (inactive)
GI50 (UACC-257): > 100 µM (inactive)
GI50 (NCI-H522): > 100 µM (inactive)

Source: ChEMBL document CHEMBL1201862, “PubChem BioAssay data set” (2004)
